Values joined by “and” are separate entries in the source; they are usually repeats but may differ in a detail not shown here. Equal values may be shown once. “Also recorded” adds a separate entry of the source.
What was measured:
[1] = tested on: Pseudomonas aeruginosa, ATCC 10145; assay: PT6 screening: microbial activity in pre-formulated acrylic paint (total ATP, aerobic and anaerobic growth on agar plate); format: cell-based
Description: The microbial activity in relation to in-can preservation of paint was tested using three methods: ATP measurement, Aerobic growth on agar plate and Anaerobic growth on agar plate in low-air conditions. In the tests concentrations of 1, 2 and 5% NBDA was tested. […] Furthermore, no significant dependence on concentration was shown in these specific tests. Specific about the ATP measurements: test and method developed by Luminultra. A sample is taken from the test paint at a given time and the total amount of ATP is measured. Total ATP amount are measured at Day 7 and 30. After every ATP measurement, streaking of test material on agar plates has been performed. Growth test in aerobic and anaerobic environment are running in 1 and 14 days, respectively. • Test organism: Pseudomonas aeruginosa, ATCC 10145 The screening has been continuously expanded so that there are individual start-ups of three different trials. See further information in the overview table, table VIII. Table VIII overview. Samples in test. Commercial biocide is Vinkocide CMIK®. Acrylic paint is standard EN 152 (modified without PT6 biocide). P. aeruginosa are inoculated in 200 μl concentration to paint sample size of 140 ml in a sterile “paint can-shape” container. […] “Anaerobic growth day 30” were inoculated on day 20 and measured on day 31.

[2] = tested on: Coriolus versicolor. CTB 863 A; assay: EN 113 test against wood destroying basidiomycetes (impregnated beech); format: cell-based
bacterial count in paint = assay: In-can preservation of paint, long-time study (bacterial count over time, FIGS. 2-5); format: cell-based
Description: The results shown that 0.5% NBDA as sole active ingredient for in-can preservation are as successful over times up to at least as year as in-can preservation by 0.5% NBDA together with 0.5% hydrogen peroxide. FIGS. 2-4 show graphs visualizing data on long term effectivity as NBDA as an in-can additive for preservation of paint. […] In […] the development in bacterial count over time for the abovementioned additives are carried out at RT, 32° C. and 60° C. respectively. The starting point is a stained sample i.e., paint with an initial high bacteria count. […] The results shown are for the development in bacterial count over time for paint samples containing 0.5% NBDA alone and 0.5% NBDA+0.5% Hydrogen Peroxide.

Poria placenta. FPRL 280 = assay: EN 113 test against wood destroying basidiomycetes (impregnated Scots pine sapwood); format: cell-based; details: for Corrected mass loss / Mass loss: Mean
[3] = tested on: Canidida albicans ISI 1226; assay: Minimum bactericidal concentration (MBC), outgrowth from MIC plates; format: cell-based, Candida albicans
Excerpt: (§1) Even when no growth is detectable in the MIC tests, it is possible that the microorganisms have survived the treatment i.e., they are not killed but just prevented from growing. In order to test for survivors, MBC plates were subsequently made from the MIC plates.

Acute oral toxicity LD50 = format: in vivo; details: worked out from rat LD50 4250 mg/kg
[4] = tested on: Coniophora puteana. BAM Ebw. 15; assay: EN 113 test against wood destroying basidiomycetes (impregnated Scots pine sapwood); format: cell-based
[5] = tested on: Streptococcus termophilus ISI 1563; assay: Minimum bactericidal concentration (MBC), outgrowth from MIC plates; format: cell-based
Excerpt: as §1

[6] = tested on: Leuconostoc mesenteroides ISI 504; assay: as above; format: cell-based
Excerpt: as §1

Bacillus cereus ISI 842 = assay: as above; format: cell-based
Excerpt: as §1

Aspergillus niger ISI 3 = assay: as above; format: cell-based
Excerpt: as §1

[7] = tested on: Debaryomyces hansenii ISI 12; assay: as above; format: cell-based
Excerpt: as §1

[8] = tested on: Lactobacillus brevis ISI 2269; assay: as above; format: cell-based
Excerpt: as §1

[9] = tested on: Pseudomonas aeruginosa ISI 1462; assay: as above; format: cell-based
Excerpt: as §1

[10] = tested on: Listeria monocytogenes ISI 22; assay: as above; format: cell-based
Excerpt: as §1

Q: Which results are given for `CCCCN(CCO)CCO` [NBDA, N-butyldiethanolamine]?
A: anti-microbial potential in paint (ATP, aerobic and anaerobic growth) ([1]; 1, 2 and 5% NBDA in acrylic paint): all three concentrations reveal anti-microbial potentials; effect against aerobic bacteria, in-can preservation of paints ([1]; concentrations of 0.5%, 1%, 2%, and 5%): effective against aerobic bacteria such Gram-negative bacteria such as Pseudomonas aeruginosa; Toxic value, Sol. conc. [2]: >2.20 % w/w; long term effectivity, bacterial count over time (bacterial count in paint; initial clean sample (low bacterial count), 0.5% NBDA, FIG. 5): as effective as 0.5% NBDA+0.5% Hydrogen peroxide for preventing bacterial growth in paint samples; long term effectivity, bacterial count over time (bacterial count in paint; initial high count, 0.5% and 1% NBDA, RT, 32° C., 60° C., FIGS. 2-4): consistent long-term results for in-can preservation of paint; also recorded: as effective as NBDA+Hydrogen Peroxide for both NBDA concentrations at all three test temperatures long term; also recorded: highly effective as the sole biocide additive for in-can preservation of paints; long term effectivity, bacterial count over time (bacterial count in paint; initial high count, 0.5% and 1% NBDA, RT, 32° C., 60° C., FIGS. 2-4, listed as N-butyldiethanolamine): no bacterial growth even for sustained periods of time; also recorded: sustained effect after more than a year; Toxic value, Sol. conc. (Poria placenta. FPRL 280): 0.72-1.01 % w/w; Corrected mass loss (Poria placenta. FPRL 280; Solution conc. 0.36 % w/w): 14.2%; Corrected mass loss (Poria placenta. FPRL 280; Solution conc. 0.72 % w/w): 8.2%; Mass loss (Poria placenta. FPRL 280; Solution conc. 0.72 % w/w): 7.8%; Corrected mass loss (Poria placenta. FPRL 280; Solution conc. 1.01 % w/w): 1.4%; Mass loss (Poria placenta. FPRL 280; Solution conc. 1.01 % w/w): 1.0%; Corrected mass loss (Poria placenta. FPRL 280; Solution conc. 1.43 % w/w): 1.5%; Mass loss (Poria placenta. FPRL 280; Solution conc. 1.43 % w/w): 0.4%; fungicide effect, preventing wood destruction (Poria placenta. FPRL 280; concentrations of 0.36%, 0.51%, 0.72%, 1.01% and 1.43%): effective as a fungicide for preventing wood destruction; MBC(%) [3]: 1.25%; human consummation equivalent to LD50 (Acute oral toxicity LD50): 319 gram pr 75 kg; Toxic value, Sol. conc. [4]: >1.43 % w/w; MBC(%) [5]: 1.25%; optical density (OD), MIC Data (second Streptococcus table) ([5]; NBDA 0.02%): 0.346 and 0.323; optical density (OD), MIC Data (second Streptococcus table) ([5]; NBDA 0.04%): 0.307 and 0.283; optical density (OD), MIC Data (second Streptococcus table) ([5]; NBDA 0.08%): 0.311 and 0.304; optical density (OD), MIC Data (second Streptococcus table) ([5]; NBDA 0.16%): 0.251 and 0.232; optical density (OD), MIC Data (second Streptococcus table) ([5]; NBDA 0.31%): 0.802 and 0.522; optical density (OD), MIC Data (second Streptococcus table) ([5]; NBDA 0.63%): 0.277 and 0.427; optical density (OD), MIC Data (second Streptococcus table) ([5]; NBDA 1.25%): 0.072; optical density (OD), MIC Data (second Streptococcus table) ([5]; NBDA 2.50%): 0.070 and 0.068; optical density (OD), MIC Data (second Streptococcus table) ([5]; NBDA 5.00%): 0.062 and 0.058; MBC(%) [6]: 0.63%; optical density (OD), MRC Data ([6]; NBDA 0.02%): 1.449 and 1.467; optical density (OD), MRC Data ([6]; NBDA 0.04%): 1.449 and 1.468; optical density (OD), MRC Data ([6]; NBDA 0.08%): 1.413 and 1.467; optical density (OD), MRC Data ([6]; NBDA 0.16%): 1.337 and 1.425; optical density (OD), MRC Data ([6]; NBDA 0.31%): 1.452 and 1.448; optical density (OD), MRC Data ([6]; NBDA 1.25%): 0.075; optical density (OD), MRC Data ([6]; NBDA 2.50%): 0.076 and 0.077; optical density (OD), MRC Data ([6]; NBDA 5.00%): 0.066 and 0.067; MBC(%) (Bacillus cereus ISI 842): 1.25%; MBC(%) (Aspergillus niger ISI 3): 0.63%; MBC(%) [7]: 2.5%; MBC(%) [8]: 0.31%; MBC(%) [9]: 1.25%; MBC(%) [10]: 2.5%

— US20260248126A1, “BIOCIDE” (PURGOS APS, priority 2020, published 2026)
